Data as given in ChEMBL document CHEMBL1132887, “Syntheses and biological evaluation of novel 2alpha-substituted 1alpha,25-dihydroxyvitamin D3 analogues” (2000).

Assays:
Parameters in all cases: reference not given here
HL-60 = assay: Compound was evaluated for HL-60 cell differentiation which was assessed in terms of expression of antigen CD11b; assay type: functional, Homo sapiens
[1] = target: T1, Vitamin D-binding protein (Rattus norvegicus) (UniProt P04276); assay: Compound was tested for binding affinity against rat serum DBP (vitamin D binding protein); assay type: cell-free
T1 sequence (whole entry): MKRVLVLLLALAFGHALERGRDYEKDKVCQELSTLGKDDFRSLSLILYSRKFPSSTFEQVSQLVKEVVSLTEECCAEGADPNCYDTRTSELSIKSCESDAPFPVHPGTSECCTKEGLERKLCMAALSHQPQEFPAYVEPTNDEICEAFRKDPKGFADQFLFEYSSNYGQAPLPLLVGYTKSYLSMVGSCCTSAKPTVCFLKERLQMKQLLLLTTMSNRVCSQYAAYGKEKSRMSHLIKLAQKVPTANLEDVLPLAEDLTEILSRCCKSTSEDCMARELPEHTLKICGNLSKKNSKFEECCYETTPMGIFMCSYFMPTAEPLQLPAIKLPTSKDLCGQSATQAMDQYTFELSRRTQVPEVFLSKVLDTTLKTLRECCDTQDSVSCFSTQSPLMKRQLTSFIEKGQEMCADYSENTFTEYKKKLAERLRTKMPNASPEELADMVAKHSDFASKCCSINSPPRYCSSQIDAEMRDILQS

[2] = target: T2, Vitamin D3 receptor (Bos taurus) (UniProt Q28037); assay: Binding affinity for bovine thymus vitamin D receptor (VDR)
T2 sequence (whole entry): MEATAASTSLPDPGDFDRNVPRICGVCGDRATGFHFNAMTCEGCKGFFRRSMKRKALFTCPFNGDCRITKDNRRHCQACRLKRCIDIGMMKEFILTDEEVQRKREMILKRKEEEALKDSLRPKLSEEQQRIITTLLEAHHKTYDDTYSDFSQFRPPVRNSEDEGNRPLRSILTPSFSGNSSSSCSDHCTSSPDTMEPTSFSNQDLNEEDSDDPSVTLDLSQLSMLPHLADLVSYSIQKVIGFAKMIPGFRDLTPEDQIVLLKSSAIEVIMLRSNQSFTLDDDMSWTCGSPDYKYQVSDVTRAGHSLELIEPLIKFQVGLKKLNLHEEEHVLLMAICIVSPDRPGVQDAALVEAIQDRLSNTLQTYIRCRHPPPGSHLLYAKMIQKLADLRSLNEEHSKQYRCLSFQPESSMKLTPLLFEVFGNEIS

Rattus norvegicus = species on record: Rattus norvegicus; assay: Compound was evaluated for calcium mobilizing activity in rat serum; assay type: functional

Activity [1] | Activity [2] | Structure (SMILES) | Activity (HL-60) | Activity (Rattus norvegicus)
44 | 400 | C=C1/C(=C\C=C2/CCC[C@]3(C)[C@@H]([C@H](C)CCCC(C)(C)O)CC[C@@H]23)C[C@@H](O)[C@H](C)[C@@H]1O | 444 | 658
21 | 20 | C=C1/C(=C\C=C2/CCC[C@]3(C)[C@@H]([C@H](C)CCCC(C)(C)O)CC[C@@H]23)C[C@@H](O)[C@H](CCC)[C@@H]1O | 44 | 636
48 | 40 | C=C1/C(=C\C=C2/CCC[C@]3(C)[C@@H]([C@H](C)CCCC(C)(C)O)CC[C@@H]23)C[C@@H](O)[C@H](CC)[C@@H]1O | 106 | 68
74 | 70 | C=C1/C(=C\C=C2/CCC[C@]3(C)[C@@H]([C@H](C)CCCC(C)(C)O)CC[C@@H]23)C[C@@H](O)[C@H](CCO)[C@@H]1O | 86 | 372
100 | 100 | C=C1/C(=C\C=C2/CCC[C@]3(C)[C@@H]([C@H](C)CCCC(C)(C)O)CC[C@@H]23)C[C@@H](O)C[C@@H]1O [CALCITRIOL] | 100 | 100
95 | 20 | C=C1/C(=C\C=C2/CCC[C@]3(C)[C@@H]([C@H](C)CCCC(C)(C)O)CC[C@@H]23)C[C@@H](O)[C@H](CO)[C@@H]1O | 10 | 124
362 | 300 | C=C1/C(=C\C=C2/CCC[C@]3(C)[C@@H]([C@H](C)CCCC(C)(C)O)CC[C@@H]23)C[C@@H](O)[C@H](CCCO)[C@@H]1O | 240 | 50866
